Earlier results, collected in patent US4280953A, “Glycosylated analogs of somatostatin” (The Salk Institute for Biological Studies, priority 1979, dated 1981).
Non-standard residues stand in square brackets, D forms with d.

Tested on: secretion of insulin, glucogon pancreatic polypeptide and gastrin
Settings: human subjects, subcutaneous administration

H-CFF[dW]KTFC-OH (cysteine pairing not given here)
inhibitory activity on the secretion of insulin, glucogon pancreatic polypeptide and gastrin: prolonged inhibitory activity
